Marks after values point to notes of the source that are not given here.
Key:
ICR mice = test: in vivo; settings: female ICR mice; single-dose ip
Description: This experiment was to investigate the toxic effects of single-dose intraperitoneal administration on ICR mice and determine the maximum tolerated dose (MTD) of each subject. Maximum tolerated dose (MTD) refers to the dose that may not cause an animal to die, may not cause the animal to suffer weight loss exceeding 10% (compared with Day 0), or may not produce significant side effects.
(§1) The corresponding amount of test substance was taken in a 5 mL glass tube and dissolved in ethanol with a 5 mm magnetic stirrer for stirring. After dissolving completely, Cremophor EL was added with continuous stirring. The marked amount of saline was added and mixed evenly before use. The volume ratio of ethanol, Cremophor EL, and physiological saline was 5:5:90.
Varieties and lines: ICR mice; level: SPF; sex: female.
Method of administration: ip. The dose was reduced in case of animal death, till an animal survived; the dose was increased in case of no animal death; the test was ended when the animals survived normally at the given high dose. Finally, the MTD of the mice on the test substances was determined according to the test results. The animals were observed continuously for 7 days after acute administration.
During the experiment, all animals were under detailed and continuous clinical observation for […], twice a day (10:00 am, 16:00 pm) after administration. The observation included but not limited to: skin, hair, ear, nose, mouth, chest, abdomen, external genitalia, limbs and feet, respiratory and circulatory system, autonomic effects (such as salivation), nervous system (such as tremor, convulsions, stress response and abnormal behavior).
The body of animals was weighed before administration, and then weighed and recorded at the same time each day.
The observation results, animal body weight, and animal survival after one week of administration were recorded in detail every day.

[1] = tested on: HCT-116 colon cancer xenografts; test: Tumor growth inhibition of HCT-116 colon cancer xenografts in tumor-bearing nude mice (tumor volume, TGI %, RTV, T/C %); type: in vivo, Balb/c Nude mice
Description: 4.1 Tumor cells: colon cancer HCT-116 cells, purchased from the Institute of Cell Biology, Chinese Academy of Sciences. The cells were incubated by F-12 medium (containing 10% FBS) in carbon dioxide incubator at 37° C. and in saturated humidity, with 5% CO2 and 95% air in volume fraction. Before inoculation, the cells at logarithmic phase were taken, and digested with 0.25% trypsin, washed once with PBS and resuspended in PBS for counting. The cells were resuspended in serum-free medium and adjusted to about 3×10^7 cell/mL.
The grouping is as follows:
The formations of tumor at the inoculation site of each group of nude mice were observed. The diameter of tumor nodule (D) was measured three times a week with round hole ruler, and the volume of tumor nodule (V) was calculated according to the following formula: […].
Anti-tumor activity was evaluated by tumor growth inhibition rate TGI (%) and relative tumor proliferation rate T/C (%).
The relative tumor volume (RTV) was calculated as: RTV=Vt/V0, where V0 was the tumor volume when they were grouped and administered, and Vt was the tumor volume at the time of measurement.
The relative proliferation rate T/C (%) was calculated as: […].
TRTV: RTV of the treatment group; CRTV: RTV of the control group.
P<0.05 was considered as significant difference.

[2] = Description: To determine the growth inhibition effect and toxicity of the cytidine derivative samples of the present invention on the transplanted tumor of nude mice bearing colon cancer HCT-116.
as §1
Varieties and lines; Balb/c Nude mice; level: SPF; sex: female.
4.2 Animal inoculation and grouping: Each nude mouse was inoculated subcutaneously with 0.1 mL of cell suspension (3×10^6 cell/mouse) at right side of hind limb in a sterile stale. When the tumor grew to about 60-150 mm^3, the nude mice with similar tumor volume and desirable shape were selected (it would be better to select single spherical shape, no irregular shape or multiple tumors grouped together) for grouping, 6 mice a group. The grouping is as follows:
The control group, namely the model control group, was injected with a mixture of ethanol, Cremophor EL, and saline (5:5:90).
Those mice were weighed three times a week.
All clinical symptoms of each animal should be recorded at the beginning of the test and during the test. The observations should be made at the same time each day.
An animal would be killed by CO2 when its weight loss was more than 20%, when it was about to die, or when its tumor volume exceeded 2800 mm^3. The tumor was separated and weighed, and the animal was autopsied and observed to evaluate and record whether there were pathological changes in the organs.
The data were expressed as Mean±SEM unless specially provided; Non-pairing T test was performed for the data between the two groups. P<0.05 was considered as significant difference.

[3] = Day 0, G3-G9 groups, single IP dose, Mean±SEM
[4] = Day 4, G3-G9 groups, single IP dose, Mean±SEM
[5] = Day 6, G3-G9 groups, single IP dose, Mean±SEM
[6] = Day 8, G3-G9 groups, single IP dose, Mean±SEM
[7] = Day 11, G3-G9 groups, single IP dose, Mean±SEM
[8] = Day 13, G3-G9 groups, single IP dose, Mean±SEM
[9] = Day 15, G3-G9 groups, single IP dose, Mean±SEM
[10] = Day 18, G3-G9 groups, single IP dose, Mean±SEM
[11] = Day 20, G3-G9 groups, single IP dose, Mean±SEM
[12] = Day 22, G3-G9 groups, single IP dose, Mean±SEM

O=C(Nc1ccn([C@@H]2O[C@H](CO)[C@@H](O)C2(F)F)c(=O)n1)OCc1ccc([N+](=O)[O-])cc1 [Compound G5, 4-N-(4-nitrocarboxybenzyl)-2′-deoxy-2′,2′-difluorocytidine]
dose that could be tolerated (maximum tolerated dose, MTD) (ICR mice): 300 mg/kg
Day 0 (RTV) [1, 3]: 1.00 ± 0.00
Tumor volume, Day 0 [1, 3]: 65.68 ± 20.50** mm^3
Day 4 (TGI %) ([1]; Day 4, G3-G9 groups, single IP dose): 77.08%
Day 4 (RTV) [1, 4]: 0.89 ± 0.17
Tumor volume, Day 4 [1, 4]: 61.06 ± 22.28** mm^3
Day 6 (TGI %) ([1]; Day 6, G3-G9 groups, single IP dose): 90.77%
Day 6 (RTV) [1, 5]: 0.62 ± 0.08
Tumor volume, Day 6 [1, 5]: 39.01 ± 12.19** mm^3
Day 8 (TGI %) ([1]; Day 8, G3-G9 groups, single IP dose): 93.03%
Day 8 (RTV) [1, 6]: 0.53 ± 0.06
Tumor volume, Day 8 [1, 6]: 36.63 ± 13.03** mm^3
tumor inhibition effect ([1]; Day 8 to Day 13 after single-dose intraperitoneal administration): good tumor inhibition effect
Day 11 (TGI %) ([1]; Day 11, G3-G9 groups, single IP dose): 94.46%
Day 11 (RTV) [1, 7]: 0.60 ± 0.08
Tumor volume, Day 11 [1, 7]: 44.57 ± 18.01** mm^3
Day 13 (TGI %) ([1]; Day 13, G3-G9 groups, single IP dose): 93.46%
Day 13 (RTV) [1, 8]: 1.04 ± 0.14
Tumor volume, Day 13 [1, 8]: 75.90 ± 28.06** mm^3
Day 15 (TGI %) ([1]; Day 15, G3-G9 groups, single IP dose): 90.78%
Day 15 (RTV) [1, 9]: 1.91 ± 0.35
Tumor volume, Day 15 [1, 9]: 130.29 ± 45.17** mm^3
Day 18 (TGI %) ([1]; Day 18, G3-G9 groups, single IP dose): 87.26%
Day 18 (RTV) [1, 10]: 3.76 ± 0.64
Tumor volume, Day 18 [1, 10]: 235.85 ± 70.86** mm^3
Day 20 (TGI %) ([1]; Day 20, G3-G9 groups, single IP dose): 80.09%
Day 20 (RTV) [1, 11]: 8.51 ± 3.10
Tumor volume, Day 20 [1, 11]: 421.94 ± 104.20** mm^3
Day 22 (TGI %) ([1]; Day 22, G3-G9 groups, single IP dose): 74.55%
Day 22 (RTV) [1, 12]: 13.37 ± 4.65
Tumor volume, Day 22 [1, 12]: 665.68 ± 158.57** mm^3
T/C % on Day 22 ([1]; Day 22, G4 350 mg/kg, G5 325 mg/kg, G7 250 mg/kg, single IP): 68.77%
relative tumor volume compared with the model control group ([1]; G4 and G5 Day 4 to Day 18, G7 Day 4 to Day 15 (p<0.05-0.01), G9 only Day 4 (p<0.05)): reduced significantly
maximum value of TGI % ([1]; day of maximum: G3 Day 8, G4 Day 11, G5 Day 11, G9 Day 4, G7 Day 8, single IP): 94.46%
minimum value of T/C % ([1]; day of minimum: G4 Day 13, G5 Day 11, G7 Day 8, single IP): 10.01%
Weight change rate, Day 0 [2, 3]: 0.00 ± 0.00%
Weight of mice, Day 0 [2, 3]: 21.03 ± 0.47 g
weights of animals on Day 4 after administration ([2]; Day 4 (G7: Day 4 and Day 6), p<0.05): significantly reduced
Weight change rate, Day 4 [2, 4]: −8.40 ± 2.65 %
Weight of mice, Day 4 [2, 4]: 19.30 ± 0.85 g
weight loss rate on Day 4 after administration ([2]; Day 4, G4 350 mg/kg, G5 325 mg/kg, G7 250 mg/kg, single IP): less than 10%
Weight change rate, Day 6 [2, 5]: −1.16 ± 2.31%
Weight of mice, Day 6 [2, 5]: 20.82 ± 0.81 g
Weight change rate, Day 8 [2, 6]: 2.81 ± 1.37%
Weight of mice, Day 8 [2, 6]: 21.63 ± 0.62 g
Weight change rate, Day 11 [2, 7]: 4.96 ± 1.42%
Weight of mice, Day 11 [2, 7]: 22.07 ± 0.49 g
Weight change rate, Day 13 [2, 8]: 7.84 ± 1.39 %
Weight of mice, Day 13 [2, 8]: 22.67 ± 0.45 g
Weight change rate, Day 15 [2, 9]: 6.31 ± 1.39 %
Weight of mice, Day 15 [2, 9]: 22.35 ± 0.49 g
Weight change rate, Day 18 [2, 10]: 8.28 ± 1.61 %
Weight of mice, Day 18 [2, 10]: 22.75 ± 0.38 g
Weight change rate, Day 20 [2, 11]: 9.18 ± 1.65 %
Weight of mice, Day 20 [2, 11]: 22.95 ± 0.50 g
Weight change rate, Day 22 [2, 12]: 10.41 ± 2.03%
Weight of mice, Day 22 [2, 12]: 23.20 ± 0.47 g
Day 22 Mortality ([2]; Day 22, single IP dose (mg/kg)): 0%
body weight compared with model control group ([2]; G4 Day 18 to Day 20 (p<0.05), G5 Day 13 to Day 20 (p<0.05~0.01)): significantly increased
clinical symptoms ([2]; after single IP dose, compared with model control group): no significant differences in clinical symptoms
